From patent US20240251785A1, “SMALL MOLECULE ANTAGONISTS AND AGONISTS OF ARTHROPOD KININ RECEPTORS FOR PEST CONTROL” (The Texas A&M University System, priority 2021, published 2024)

The compounds below were run on R. microplus kinin receptor (assay: High-throughput dual-addition calcium fluorescence screen on BMLK3 cells). Details: compound 2 μmol L^−1, first addition; relative to FFFSWGa 500 nmol L^−1.
Format: cell-based, Rhipicephalus microplus
`CC(C)(C)c1ccc(C(=O)NNC(=S)NC(=O)c2cccnc2)cc1` [SACC-0015467] was tested, and the “agonist NPA (%)” value was 70%. For `CC1(C)CSC(=NCc2ccccc2)N1C(=O)Cc1noc2ccccc12` [SACC-0024181], the “agonist NPA (%)” value was 48%. `CC1=C(Cc2ccccc2)C(C)Nc2ccccc2N1` (stereo not drawn) [SACC-0026915] was tested, and the “agonist NPA (%)” value was 111%. With `Cc1n[nH]c(C)c1N1C(=O)c2cccc3c(N4CCCCCC4)ccc(c23)C1=O` [SACC-0027895] the “agonist NPA (%)” value was 84%. In the case of `Cc1cc(C(C)(C)C)cc(C)c1CSC(=N)N` [SACC-0029825], the “agonist NPA (%)” value is reported as 70%. In the case of `Cc1ccc(-c2ccsc2C(=O)Nc2ccc3c(c2)CCO3)cc1` [SACC-0033336], the “agonist NPA (%)” value is reported as 51%. For `Cc1nc(C)c(C(=O)N(Cc2ccco2)C2CCN(c3ccc4c(c3)OCO4)CC2)s1` [SACC-0040154], the “agonist NPA (%)” value was 81%. `CCN(CC)c1ccc2cc(C(N)=O)c(=NNC(=O)c3cccs3)oc2c1` [SACC-0052578] was tested, and the “agonist NPA (%)” value was 166%. In the case of `CCNc1nc(NCc2ccco2)c2ccccc2n1` [SACC-0055093], the “agonist NPA (%)” value is reported as 128%.

What follows are compounds tested against recombinant tick kinin receptor (BMLK3) (Rhipicephalus microplus, UniProt Q9NHA4) (assay: Dose-response dual-addition calcium fluorescence assay on BMLK3 cells). Details: Table 3.
Sequence of recombinant tick kinin receptor (BMLK3) (Q9NHA4 entry or part of it): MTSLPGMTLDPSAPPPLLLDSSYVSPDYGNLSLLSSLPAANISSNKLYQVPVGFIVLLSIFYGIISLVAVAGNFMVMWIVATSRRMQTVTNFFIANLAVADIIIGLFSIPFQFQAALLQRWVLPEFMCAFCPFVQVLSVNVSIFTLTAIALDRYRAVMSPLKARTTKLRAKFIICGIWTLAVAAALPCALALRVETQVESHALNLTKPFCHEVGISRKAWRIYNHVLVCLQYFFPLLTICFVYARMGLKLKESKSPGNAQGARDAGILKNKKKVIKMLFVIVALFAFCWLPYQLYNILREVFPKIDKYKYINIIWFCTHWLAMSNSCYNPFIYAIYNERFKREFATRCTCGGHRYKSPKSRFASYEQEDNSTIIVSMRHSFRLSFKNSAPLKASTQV
Format: cell-based
With `CC(C)(C)c1ccc(C(=O)NNC(=S)NC(=O)c2cccnc2)cc1` [SACC-0015467] the “validation mark in dose-response assay” value was “*** (molecules which are either off-target or of low activity (<25 μM))”. `CC1(C)CSC(=NCc2ccccc2)N1C(=O)Cc1noc2ccccc12` [SACC-0024181] was tested, and the “validation mark in dose-response assay” value was “*** (molecules which are either off-target or of low activity (<25 μM))”. With `CC1=C(Cc2ccccc2)C(C)Nc2ccccc2N1` (stereo not drawn) [SACC-0026915] the “validation mark in dose-response assay” value was “*** (molecules which are either off-target or of low activity (<25 μM))”. In the case of `Cc1n[nH]c(C)c1N1C(=O)c2cccc3c(N4CCCCCC4)ccc(c23)C1=O` [SACC-0027895], the “validation mark in dose-response assay” value is reported as “*** (molecules which are either off-target or of low activity (<25 μM))”. `Cc1cc(C(C)(C)C)cc(C)c1CSC(=N)N` [SACC-0029825] was tested, and the “validation mark in dose-response assay” value was “*** (molecules which are either off-target or of low activity (<25 μM))”. `Cc1ccc(-c2ccsc2C(=O)Nc2ccc3c(c2)CCO3)cc1` [SACC-0033336] was tested, and the “validation mark in dose-response assay” value was “*** (molecules which are either off-target or of low activity (<25 μM))”. For `Cc1nc(C)c(C(=O)N(Cc2ccco2)C2CCN(c3ccc4c(c3)OCO4)CC2)s1` [SACC-0040154], the “validation mark in dose-response assay” value was “*** (molecules which are either off-target or of low activity (<25 μM))”. With `CCN(CC)c1ccc2cc(C(N)=O)c(=NNC(=O)c3cccs3)oc2c1` [SACC-0052578] the “validation mark in dose-response assay” value was “*** (molecules which are either off-target or of low activity (<25 μM))”. With `CCNc1nc(NCc2ccco2)c2ccccc2n1` [SACC-0055093] the “validation mark in dose-response assay” value was “*** (molecules which are either off-target or of low activity (<25 μM))”.

Same assay, conditions: first addition, 20 concentrations 28 nM-25 μM; read-out: BMLK3 EC50
`CC(C)(C)c1ccc(C(=O)NNC(=S)NC(=O)c2cccnc2)cc1` [SACC-0015467] showed an EC50 of 4.32 µM. In the case of `CC1(C)CSC(=NCc2ccccc2)N1C(=O)Cc1noc2ccccc12` [SACC-0024181], the EC50 is reported as 9.01 µM. In the case of `CC1=C(Cc2ccccc2)C(C)Nc2ccccc2N1` (stereo not drawn) [SACC-0026915], the EC50 is reported as 0.662 µM. Compound `Cc1n[nH]c(C)c1N1C(=O)c2cccc3c(N4CCCCCC4)ccc(c23)C1=O` [SACC-0027895] has an EC50 greater than 25 µM. Compound `Cc1cc(C(C)(C)C)cc(C)c1CSC(=N)N` [SACC-0029825] has an EC50 of 6.95 µM. `Cc1ccc(-c2ccsc2C(=O)Nc2ccc3c(c2)CCO3)cc1` [SACC-0033336] was tested, and the EC50 was 2.95 µM. `Cc1nc(C)c(C(=O)N(Cc2ccco2)C2CCN(c3ccc4c(c3)OCO4)CC2)s1` [SACC-0040154] showed an EC50 of 13.2 µM. In the case of `CCN(CC)c1ccc2cc(C(N)=O)c(=NNC(=O)c3cccs3)oc2c1` [SACC-0052578], the EC50 is reported as greater than 25 µM. With `CCNc1nc(NCc2ccco2)c2ccccc2n1` [SACC-0055093] the EC50 was 0.898 µM.

Same assay, conditions: second addition Rhimi-K-1 1 μmol L^−1; read-out: BMLK3 IC50
For `CC(C)(C)c1ccc(C(=O)NNC(=S)NC(=O)c2cccnc2)cc1` [SACC-0015467], the IC50 was 6.3 µM. In the case of `CC1(C)CSC(=NCc2ccccc2)N1C(=O)Cc1noc2ccccc12` [SACC-0024181], the IC50 is reported as 0.252 µM. `CC1=C(Cc2ccccc2)C(C)Nc2ccccc2N1` (stereo not drawn) [SACC-0026915] showed an IC50 of 4.6 µM. In the case of `Cc1n[nH]c(C)c1N1C(=O)c2cccc3c(N4CCCCCC4)ccc(c23)C1=O` [SACC-0027895], the IC50 is reported as greater than 25 µM. In the case of `Cc1cc(C(C)(C)C)cc(C)c1CSC(=N)N` [SACC-0029825], the IC50 is reported as less than 0.0285 µM. Compound `Cc1ccc(-c2ccsc2C(=O)Nc2ccc3c(c2)CCO3)cc1` [SACC-0033336] has an IC50 of 7.17 µM. Work on `Cc1nc(C)c(C(=O)N(Cc2ccco2)C2CCN(c3ccc4c(c3)OCO4)CC2)s1` [SACC-0040154] yielded an IC50 of 3.09 µM. Work on `CCN(CC)c1ccc2cc(C(N)=O)c(=NNC(=O)c3cccs3)oc2c1` [SACC-0052578] yielded an IC50 greater than 25 µM. With `CCNc1nc(NCc2ccco2)c2ccccc2n1` [SACC-0055093] the IC50 was 10.3 µM.

What follows are compounds tested on vector-only (V/O) CHO-K1 cells (assay: Dose-response dual-addition calcium fluorescence assay on vector-only cells). Details: V/O cells, first addition.
Format: cell-based
Compound `CC(C)(C)c1ccc(C(=O)NNC(=S)NC(=O)c2cccnc2)cc1` [SACC-0015467] has an EC50 of 3.45 µM. For `CC1(C)CSC(=NCc2ccccc2)N1C(=O)Cc1noc2ccccc12` [SACC-0024181], the EC50 was 8.1 µM. Work on `CC1=C(Cc2ccccc2)C(C)Nc2ccccc2N1` (stereo not drawn) [SACC-0026915] yielded an EC50 of 1 µM. Work on `Cc1n[nH]c(C)c1N1C(=O)c2cccc3c(N4CCCCCC4)ccc(c23)C1=O` [SACC-0027895] yielded an EC50 greater than 25 µM. `Cc1cc(C(C)(C)C)cc(C)c1CSC(=N)N` [SACC-0029825] was tested, and the EC50 was 5.46 µM. Work on `Cc1ccc(-c2ccsc2C(=O)Nc2ccc3c(c2)CCO3)cc1` [SACC-0033336] yielded an EC50 of 4.34 µM. With `Cc1nc(C)c(C(=O)N(Cc2ccco2)C2CCN(c3ccc4c(c3)OCO4)CC2)s1` [SACC-0040154] the EC50 was 0.12 µM. `CCN(CC)c1ccc2cc(C(N)=O)c(=NNC(=O)c3cccs3)oc2c1` [SACC-0052578] gave an EC50 greater than 25 µM. For `CCNc1nc(NCc2ccco2)c2ccccc2n1` [SACC-0055093], the EC50 was 0.683 µM.

Same assay, conditions: V/O cells, second addition Rhimi-K-1 1 μmol L^−1; read-out: V/O antagonist IC50
Compound `CC(C)(C)c1ccc(C(=O)NNC(=S)NC(=O)c2cccnc2)cc1` [SACC-0015467] has an IC50 of 7.1 µM. For `CC1(C)CSC(=NCc2ccccc2)N1C(=O)Cc1noc2ccccc12` [SACC-0024181], the IC50 was 6.27 µM. For `CC1=C(Cc2ccccc2)C(C)Nc2ccccc2N1` (stereo not drawn) [SACC-0026915], the IC50 was greater than 25 µM. In the case of `Cc1n[nH]c(C)c1N1C(=O)c2cccc3c(N4CCCCCC4)ccc(c23)C1=O` [SACC-0027895], the IC50 is reported as greater than 25 µM. With `Cc1cc(C(C)(C)C)cc(C)c1CSC(=N)N` [SACC-0029825] the IC50 was 9.81 µM. Compound `Cc1ccc(-c2ccsc2C(=O)Nc2ccc3c(c2)CCO3)cc1` [SACC-0033336] has an IC50 greater than 25 µM. `Cc1nc(C)c(C(=O)N(Cc2ccco2)C2CCN(c3ccc4c(c3)OCO4)CC2)s1` [SACC-0040154] gave an IC50 of 1.24 µM. `CCN(CC)c1ccc2cc(C(N)=O)c(=NNC(=O)c3cccs3)oc2c1` [SACC-0052578] gave an IC50 greater than 25 µM. `CCNc1nc(NCc2ccco2)c2ccccc2n1` [SACC-0055093] showed an IC50 of 0.376 µM.
